Experimental findings from US20240409585A1, “MACROCYCLIC IMMUNOMODULATORS” (priority 2021, published 2024) are described below.

The target in this experiment is T1, PE-labeled human PD-L1-Ig binding to Jurkat cell line over-expressing human PD-1 (Jurkat-PD-1) (Homo sapiens, UniProt Q15116).
T1 construct: expressed in transfected cells; host or cells: Jurkat
Briefly: Jurkat-PD-1 Cell Binding High-Content Screening Assay (CBA): Method 1.

[1] abbreviates: Jurkat-hPD-1 cells, PE-labeled PD-L1-Ig 20 nM final, read-out: Jurkat HPDL1 PD1 IC50 (uM) (Method 1).

Each structure is given as a SMILES string. Like-named read-outs stand apart in the source and are kept apart here. Numbered stars: 1 amine (or outer) side, 2 acyl side, 3 side chain; on linkers, the order of the positions; unused ones are H or OH. Bridge positions count the residues as written; N and C are the ends. Square brackets hold non-standard residues; d marks the D form. Peptide text beside a SMILES is read from it. * marks the point of attachment. ξ: configuration not given here. Tyr(3-NO2) = N[C@@H](Cc1ccc(O)c([N+](=O)[O-])c1)C(=O)O; Phe(4-COOH) = N[C@@H](Cc1ccc(C(=O)O)cc1)C(=O)O; Bip = N[C@@H](Cc1ccc(-c2ccccc2)cc1)C(=O)O; Lys(Me3) = C[N+](C)(C)CCCC[C@H](N)C(=O)O; Phe(3-Me) = Cc1cccc(C[C@H](N)C(=O)O)c1; X34 = O=C([C@H](Cc1ccoc1)N[*:1])[*:2]; Gly(cPent) = N[C@H](C(=O)O)C1CCCC1; Val(3-OH) = CC(C)(O)[C@H](N)C(=O)O; hArg = N=C(N)NCCCC[C@H](N)C(=O)O; 3Pal = N[C@@H](Cc1cccnc1)C(=O)O; 4Pal = N[C@@H](Cc1ccncc1)C(=O)O; Cha = N[C@@H](CC1CCCCC1)C(=O)O; Cit = NC(=O)NCCC[C@H](N)C(=O)O; Ile(3ξ) = CCC(C)[C@H](N)C(=O)O; Thr(3ξ) = CC(O)[C@H](N)C(=O)O; dNva = CCC[C@@H](N)C(=O)O; Carboxymethyl = O=C(O)C*; NMeA = CN[C@@H](C)C(=O)O; Nle = CCCC[C@H](N)C(=O)O; Orn = NCCC[C@H](N)C(=O)O; Dab = NCC[C@H](N)C(=O)O; ξC = NC(CS)C(=O)O

T1 sequence (Q15116 25-288): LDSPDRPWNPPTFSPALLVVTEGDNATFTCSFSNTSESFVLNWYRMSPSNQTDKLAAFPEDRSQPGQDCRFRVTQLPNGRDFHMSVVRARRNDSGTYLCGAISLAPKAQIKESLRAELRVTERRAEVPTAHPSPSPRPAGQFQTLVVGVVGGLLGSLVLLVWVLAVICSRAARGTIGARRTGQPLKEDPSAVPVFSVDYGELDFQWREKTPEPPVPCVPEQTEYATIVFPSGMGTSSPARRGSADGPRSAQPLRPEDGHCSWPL

For the compound `CC(C)C[C@@H]1NC(=O)[C@H](CCN)NC(=O)[C@@H](CC(C)C)NC(=O)[C@H](C)N(C)C(=O)[C@H](CCCNC(=N)N)NC(=O)[C@H](Cc2ccc(-c3ccccc3)cc2)NC(=O)[C@H](C(C)C)NC(=O)[C@H](Cc2c[nH]c3ccccc23)NC(=O)[C@H](CC(=O)O)NC(=O)[C@H](Cc2ccncc2)NC(=O)[C@H](Cc2cccnc2)NC(=O)CSC[C@@H](C(=O)N[C@@H](C)C(N)=O)NC(=O)[C@H]([C@@H](C)O)NC(=O)[C@H](C(C)C)NC1=O` [Compound 1147] ({CH2CO}-[3Pal][4Pal]DWV[Bip]R[NMeA][dL][Dab]LVTCA-NH2; thioether N-14), under setting [1], the IC50 amounted to 0.02 µM. The same measure, in the same setting: then `CCC(C)[C@@H]1NC(=O)[C@H](Cc2ccc(-c3ccccc3)cc2)NC(=O)[C@H](C(C)C)NC(=O)[C@H](Cc2cccc(C)c2)NC(=O)[C@H](CC(=O)O)NC(=O)[C@H](Cc2ccc(C(=O)O)cc2)NC(=O)[C@H](Cc2ccncc2)NC(=O)CSC[C@@H](C(N)=O)NC(=O)[C@H](CCCN)NC(=O)[C@H](C(C)C)NC(=O)[C@H](CC(C)C)NC(=O)[C@H](CCN)NC(=O)[C@@H](CC(C)C)NC(=O)[C@H](C)N(C)C1=O` (stereo partly drawn) [Compound 1900] ({CH2CO}-[4Pal][Phe(4-COOH)]D[Phe(3-Me)]V[Bip][Ile(3ξ)][NMeA][dL][Dab]LV[Orn]C-NH2; thioether N-14), with 0.05 µM; and `CC[C@H](C)[C@@H]1NC(=O)[C@H](Cc2ccc(-c3ccccc3)cc2)NC(=O)[C@H](C(C)C)NC(=O)[C@H](Cc2c[nH]c3ccccc23)NC(=O)[C@H](CC(=O)O)NC(=O)[C@H](Cc2ccc(OCC(=O)O)cc2)NC(=O)[C@H](Cc2ccncc2)NC(=O)CSC[C@@H](C(=O)N[C@@H](C)C(N)=O)NC(=O)[C@H]([C@@H](C)O)NC(=O)[C@H](C(C)C)NC(=O)[C@H](CC(C)C)NC(=O)[C@H](CCN)NC(=O)[C@@H](CC(C)C)NC(=O)[C@H](C)N(C)C1=O` [Compound 1413] ({CH2CO}-[4Pal]Y(Carboxymethyl)DWV[Bip]I[NMeA][dL][Dab]LVTCA-NH2; thioether N-14), with 0.03 µM; and `CCC[C@H]1NC(=O)[C@H](C)N(C)C(=O)[C@H](C(C)C)NC(=O)[C@H](Cc2ccc(-c3ccccc3)cc2)NC(=O)[C@H](CC(C)C)NC(=O)[C@H](Cc2c[nH]c3ccccc23)NC(=O)[C@H](CC(=O)O)NC(=O)[C@H](Cc2ccc(O)cc2)NC(=O)[C@H](Cc2ccccc2)NC(=O)CSC[C@@H](C(=O)N[C@@H](C)C(N)=O)NC(=O)[C@H](CO)NC(=O)[C@H](C(C)C)NC(=O)[C@H](CC(C)C)NC(=O)[C@H](CC(N)=O)NC1=O` [Compound 1755] ({CH2CO}-FYDWL[Bip]V[NMeA][dNva]NLVSCA-NH2; thioether N-14), with 0.03 µM.

Consider `CC(C)C[C@H]1NC(=O)[C@H](C)N(C)C(=O)[C@H](CCC(=O)O)NC(=O)[C@H](Cc2ccc(-c3ccccc3)cc2)NC(=O)[C@H](C(C)C)NC(=O)[C@H](Cc2c[nH]c3ccccc23)NC(=O)[C@H](CC(=O)O)NC(=O)[C@H](Cc2ccc(O)cc2)NC(=O)[C@H](CCCCNC(=N)N)NC(=O)CSC[C@@H](C(=O)NCC(N)=O)NC(=O)[C@H](C(C)O)NC(=O)[C@H](C(C)C)NC(=O)[C@H](CC2CCCCC2)NC(=O)[C@H](CCN)NC1=O` (stereo partly drawn) [Compound 2094] ({CH2CO}-[hArg]YDWV[Bip]E[NMeA][dL][Dab][Cha]V[Thr(3ξ)]CG-NH2; thioether N-14), for which the IC50 under setting [1] stood at 0.02 µM. `CC(C)C[C@H]1NC(=O)[C@H](C)N(C)C(=O)[C@H](C(C)C)NC(=O)[C@H](Cc2ccc(-c3ccccc3)cc2)NC(=O)[C@H](C(C)C)NC(=O)[C@H](Cc2c[nH]c3ccccc23)NC(=O)[C@H](CC(=O)O)NC(=O)[C@H](Cc2ccc(O)cc2)NC(=O)[C@H](CC(N)=O)NC(=O)CSC[C@@H](C(=O)N[C@@H](C)C(N)=O)NC(=O)[C@H]([C@@H](C)O)NC(=O)[C@H](C(C)C)NC(=O)[C@H](CC2CCCCC2)NC(=O)[C@H](CCCNC(=N)N)NC1=O` [Compound 1294] ({CH2CO}-NYDWV[Bip]V[NMeA][dL]R[Cha]VTCA-NH2; thioether N-14): under setting [1], the IC50 came to 0.3 µM. Take `CCC(C)[C@@H]1NC(=O)[C@H](Cc2ccc(-c3ccccc3)cc2)NC(=O)[C@H](C(C)C)NC(=O)[C@H](Cc2c[nH]c3ccccc23)NC(=O)[C@H](CC(=O)O)NC(=O)[C@H](Cc2ccc(O)cc2)NC(=O)[C@H](Cc2ccoc2)NC(=O)CSC[C@@H](C(=O)N2CCC[C@H]2C(N)=O)NC(=O)[C@H](C(C)O)NC(=O)[C@H](C(C)(C)O)NC(=O)[C@H](CC2CCCCC2)NC(=O)[C@H](CC(N)=O)NC(=O)[C@@H](CC(C)C)NC(=O)[C@H](C)N(C)C1=O` (stereo partly drawn) [Example 5009] ({CH2CO}-[X34]YDWV[Bip][Ile(3ξ)][NMeA][dL]N[Cha][Val(3-OH)][Thr(3ξ)]CP-NH2; thioether N-14): the IC50 (Jurkat-PD-1 cells, PE-labeled PD-L1-Ig, μM, read-out: CBA Method 1 μM) came out at 0.45 µM. For the compound `CC(C)C[C@@H]1NC(=O)[C@H](CCN)NC(=O)[C@@H](CC(C)C)NC(=O)[C@H](C)N(C)C(=O)[C@H](CCCNC(N)=O)NC(=O)[C@H](Cc2ccc(-c3ccccc3)cc2)NC(=O)[C@H](C(C)C)NC(=O)[C@H](Cc2c[nH]c3ccccc23)NC(=O)[C@H](CC(=O)O)NC(=O)[C@H](Cc2ccc(O)c([N+](=O)[O-])c2)NC(=O)[C@H](CC(N)=O)NC(=O)CSC[C@@H](C(=O)N[C@@H](C)C(N)=O)NC(=O)[C@H]([C@@H](C)O)NC(=O)[C@H](C(C)C)NC1=O` [Compound 1319] ({CH2CO}-N[Tyr(3-NO2)]DWV[Bip][Cit][NMeA][dL][Dab]LVTCA-NH2; thioether N-14), under setting [1], the IC50 is 0.04 µM.

In the case of `CC(C)C[C@@H]1NC(=O)[C@H](CCCNC(=N)N)NC(=O)[C@@H](CC(C)C)NC(=O)[C@H](C)N(C)C(=O)[C@H](CCCNC(=N)N)NC(=O)[C@H](Cc2ccc(-c3ccccc3)cc2)NC(=O)[C@H](C(C)C)NC(=O)[C@H](Cc2c[nH]c3ccccc23)NC(=O)[C@H](CC(=O)O)NC(=O)[C@H](Cc2ccc(O)cc2)NC(=O)[C@H](CC(N)=O)NC(=O)CSC[C@@H](C(=O)NCC(N)=O)NC(=O)[C@H](CO)NC(=O)[C@H](C(C)C)NC1=O` [Compound 1253] ({CH2CO}-NYDWV[Bip]R[NMeA][dL]RLVSCG-NH2; thioether N-14), the IC50 under setting [1] worked out at 0.03 µM. On the same count and under the same terms, then `CCC(C)[C@@H]1NC(=O)[C@H](Cc2ccc(-c3ccccc3)cc2)NC(=O)[C@H](C(C)C)NC(=O)[C@H](Cc2c[nH]c3ccccc23)NC(=O)[C@H](CC(=O)O)NC(=O)[C@H](Cc2ccc(O)cc2)NC(=O)[C@H](CCCC[N+](C)(C)C)NC(=O)CSCC(C(=O)NCC(=O)O)NC(=O)[C@H](C(C)O)NC(=O)[C@H](C(C)C)NC(=O)[C@H](CC2CCCCC2)NC(=O)[C@H](CCN)NC(=O)[C@@H](CC(C)C)NC(=O)[C@H](C)N(C)C1=O` (stereo partly drawn) [Compound 2217] ({CH2CO}-[Lys(Me3)]YDWV[Bip][Ile(3ξ)][NMeA][dL][Dab][Cha]V[Thr(3ξ)][ξC]G-OH; thioether N-14), with 0.01 µM; and `CC(C)C[C@@H]1NC(=O)[C@H](CCCCN)NC(=O)[C@@H](CC(C)C)NC(=O)[C@H](C)N(C)C(=O)[C@H](CCCNC(=N)N)NC(=O)[C@H](Cc2ccc(-c3ccccc3)cc2)NC(=O)[C@H](C(C)C)NC(=O)[C@H](Cc2c[nH]c3ccccc23)NC(=O)[C@H](CC(=O)O)NC(=O)[C@H](Cc2ccc(O)cc2)NC(=O)[C@H](Cc2ccccc2)NC(=O)CSC[C@@H](C(=O)N[C@@H](CO)C(N)=O)NC(=O)[C@H]([C@@H](C)O)NC(=O)[C@H](C(C)C)NC1=O` [Compound 1184] ({CH2CO}-FYDWV[Bip]R[NMeA][dL]KLVTCS-NH2; thioether N-14), with 0.13 µM. As for `CCC(C)[C@@H]1NC(=O)[C@H](Cc2ccc(-c3ccccc3)cc2)NC(=O)[C@H](CC(C)C)NC(=O)[C@H](Cc2c[nH]c3ccccc23)NC(=O)[C@H](CC(=O)O)NC(=O)[C@H](Cc2ccc(OCC(=O)O)cc2)NC(=O)[C@H](C(C)O)NC(=O)CSC[C@@H](C(=O)N[C@@H](CC(N)=O)C(=O)O)NC(=O)[C@H](C2CCCC2)NC(=O)[C@H](C(C)C)NC(=O)[C@H](CC(C)C)NC(=O)[C@H](CCN)NC(=O)[C@@H](CC(C)C)NC(=O)[C@H](C)N(C)C1=O` (stereo partly drawn) [Compound 2227] ({CH2CO}-[Thr(3ξ)]Y(Carboxymethyl)DWL[Bip][Ile(3ξ)][NMeA][dL][Dab]LV[Gly(cPent)]CN-OH; thioether N-14), under setting [1], the IC50 worked out at 0.81 µM. The same measure, in the same setting: then `Cc1cccc(C[C@@H]2NC(=O)[C@H](CC(=O)O)NC(=O)[C@H](Cc3ccc(OCC(=O)O)cc3)NC(=O)[C@H](Cc3ccncc3)NC(=O)CSC[C@@H](C(=O)N[C@@H](CCN)C(N)=O)NC(=O)[C@H](C(C)O)NC(=O)[C@H](C(C)(C)O)NC(=O)[C@H](CC3CCCCC3)NC(=O)[C@H](CCN)NC(=O)[C@@H](CC(C)C)NC(=O)[C@H](C)N(C)C(=O)[C@H](Cc3ccc(OCC(=O)O)cc3)NC(=O)[C@H](Cc3ccc(-c4ccccc4)cc3)NC(=O)[C@H](Cc3ccc(C(=O)O)cc3)NC2=O)c1` (stereo partly drawn) [Compound 2146] ({CH2CO}-[4Pal]Y(Carboxymethyl)D[Phe(3-Me)][Phe(4-COOH)][Bip]Y(Carboxymethyl)[NMeA][dL][Dab][Cha][Val(3-OH)][Thr(3ξ)]C[Dab]-NH2; thioether N-14), with 0.01 µM.

Consider `CCCC[C@@H]1NC(=O)[C@H](CCCNC(=N)N)NC(=O)[C@@H](CC(C)C)NC(=O)[C@H](C)N(C)C(=O)[C@H](CCCN)NC(=O)[C@H](Cc2ccc(-c3ccccc3)cc2)NC(=O)[C@H](C(C)C)NC(=O)[C@H](Cc2c[nH]c3ccccc23)NC(=O)[C@H](CC(=O)O)NC(=O)[C@H](Cc2ccc(O)cc2)NC(=O)[C@H](CC(N)=O)NC(=O)CSC[C@@H](C(=O)N[C@@H](C)C(N)=O)NC(=O)[C@H]([C@@H](C)O)NC(=O)[C@H](C(C)C)NC1=O` [Compound 1289] ({CH2CO}-NYDWV[Bip][Orn][NMeA][dL]R[Nle]VTCA-NH2; thioether N-14), for which the IC50 under setting [1] was 0.09 µM. With `CC(C)C[C@@H]1NC(=O)[C@H](Cc2c[nH]c3ccccc23)NC(=O)[C@H](CC(=O)O)NC(=O)[C@H](Cc2ccc(O)cc2)NC(=O)[C@H](Cc2ccccc2)NC(=O)CSC[C@@H](C(=O)NCC(N)=O)NC(=O)[C@H](CO)NC(=O)[C@H](C(C)C)NC(=O)[C@H](CC(C)C)NC(=O)[C@H](CC(=O)O)NC(=O)[C@H](CCCCN)NC(=O)[C@H](C)N(C)C(=O)[C@H](C(C)C)NC(=O)[C@H](Cc2ccc(-c3ccccc3)cc2)NC1=O` [Compound 1826] ({CH2CO}-FYDWL[Bip]V[NMeA]KDLVSCG-NH2; thioether N-14), under setting [1], the IC50 came to 0.76 µM.
